Test results published in patent US20260234185A1, “ANTI-AGING COMPOSITION COMPRISING PEPTIDE COMPLEX AS ACTIVE INGREDIENT” (priority 2023, published 2026).
Where no end group is shown, it is not given here.

Assays:
Assay type in all cases: cell-based
[1] = system: inflammatory cytokine TNFα; test: Western blot of TNFα expression in adipocytes with palmitate-induced inflammation; conditions: 3T3-L1 adipocytes, inflammation induced by 25 μM palmitate; 0.2, 2, 20 μg/mL; 24 hours; Western blot vs PA control (FIGS. 5a, 5b)
Method: An experiment was performed to determine whether the peptide complex prepared in Preparation Example 1 induces a decrease in the phosphorylation of IκBα and a decrease in the expression level of the inflammatory cytokine TNFα in adipocytes under an inflammatory state induced by palmitate treatment.
When 3T3-L1 preadipocytes reached 80% confluence, they were seeded at 5×10^3 cells/well in a 96-well plate and used for the experiment. Two days after reaching confluence, the medium was replaced with a differentiation-inducing medium to induce the differentiation into adipocytes. Two days after the induction, the cells were cultured for 2 days in a medium containing 10% FBS and 10 μg/mL insulin, and then the medium was replaced with 10% FBS every days 2 until their differentiation into adipocytes. Once the differentiation was complete, the medium was replaced with a serum-free medium and cultured for 4 hours to induce starvation. After treating with 25 μM palmitate for 30 minutes, the peptide complexes were treated at concentrations of 0.2 μg/mL, 2 μg/mL, and 20 μg/mL and incubated for 24 hours. The control group (PA) was treated only with palmitate but not with the peptide complex. After dissolving by adding dissolution buffer thereto, the proteins obtained by centrifugation at 4° C. and 12,000 rpm for 30 minutes were quantified using a BCA kit. […]

sirtuin 1 (SIRT1) gene = test: RT-PCR of SIRT1 gene expression in palmitate-treated adipocytes; conditions: 3T3-L1 adipocytes, 25 μM palmitate 30 minutes; 0.2, 2, 20 μg/mL; 24 hours; RT-PCR vs palmitate control (PA) (FIGS. 4a, 4b)
Method: (§1) An experiment was performed to determine whether the peptide complex prepared in Preparation Example 1 increases the gene expression of longevity-related genes, FGF21, SIRT1, AMPK, and FOXO3A, in adipocytes in a state of insulin metabolic disorder induced by palmitate treatment.
(§2) When 3T3-L1 preadipocytes reached 80% confluence, they were seeded at 5×10^3 cells/well in a 96-well plate and used for the experiment. Two days after reaching confluence, the medium was replaced with differentiation-inducing medium to induce the differentiation into adipocytes, and two days after the induction, the medium was cultured for 2 days in a medium containing 10% FBS and 10 μg/mL insulin, and then the medium was replaced with 10% FBS every 2 days until their differentiation into adipocytes. After differentiation was complete, the medium was replaced with glucose-free medium, cultured for 16 hours, and then starvation was induced by culturing for 40 minutes in 100 μL KPPH buffer containing 2% BSA. After treating with 25 μM palmitate for 30 minutes, the peptide complexes were treated at concentrations of 0.2 μg/mL, 2 μg/mL, and 20 μg/mL, cultured for 24 hours, and RNA was extracted after 24 hours and RT-PCR was performed. […] Subsequently, the mRNA expression pattern was determined by agarose gel electrophoresis.

sirtuin 1 (SIRT1) = test: Western blot of SIRT1 protein expression in adipocytes; conditions: differentiated 3T3-L1 adipocytes; 0.2, 2, 20 μg/mL; 1 hour; Western blot (FIGS. 1a, 1b)
Method: An experiment was performed to determine whether the peptide complex prepared in Preparation Example 1 using adipocytes increases the phosphorylation of AMP-activated protein kinase (AMPK), which is a longevity-related protein, and increases the expression levels of sirtuin 1 (SIRT1) and fibroblast growth factor 21 (FGF21) proteins in adipocytes.
When 3T3-L1 preadipocytes reached 80% confluence, they were seeded at 5×10^3 cells/well in a 96-well plate and used for the experiment. Two days after reaching confluence, the medium was replaced with a differentiation-inducing medium to induce the differentiation into adipocytes, and two days after the induction, the cells were cultured for 2 days in a medium containing 10% FBS and 10 μg/mL insulin, and then the medium was replaced with 10% FBS every 2 days until their differentiation into adipocytes. Once the differentiation was complete, the medium was replaced with a serum-free medium and cultured for 4 hours to induce starvation. The peptide complexes were treated at concentrations of 0.2 μg/mL, 2 μg/mL, and 20 μg/mL, incubated for 1 hour, dissolved by adding dissolution buffer thereto, and the proteins obtained by centrifugation at 4° C. and 12,000 rpm for 30 minutes were quantified using a BCA kit. […]

FOXO3A gene = test: RT-PCR of FOXO3A gene expression in palmitate-treated adipocytes; conditions: 3T3-L1 adipocytes, 25 μM palmitate 30 minutes; 0.2, 2, 20 μg/mL; 24 hours; RT-PCR vs palmitate control (PA) (FIGS. 4a, 4b)
Method: as §1, §2

peptide complex: prepared by mixing equal amounts of the peptide of SEQ ID NO: 1 (LKTRN) and the peptide of SEQ ID NO: 2 (KGSATGWMA) (also: mixture of two peptides)
expression level of TNFα [1]: reduced
expression of sirtuin 1 (SIRT1) gene (sirtuin 1 (SIRT1) gene): increased
expression level of SIRT1 protein (sirtuin 1 (SIRT1)): increased
expression of FOXO3A gene (FOXO3A gene): increased
